# From ChEMBL document CHEMBL1157923, “Probing the cannabinoid CB1/CB2 receptor subtype selectivity limits of 1,2-diarylimidazole-4-carboxamides by fine-tuning their 5-substitution pattern” (Bioorg Med Chem Lett, 2010)
# pKi: −log10 of the molar value.
# Key:
# [1] = species: Homo sapiens; test: Selectivity ratio Ki for human CB2 receptor to Ki for human CB1 receptor
# [2] = biological target: Cannabinoid receptor 1 (Homo sapiens, UniProt P21554); test: biochemical; format: cell-based, CHO
# [3] = biological target: Cannabinoid receptor 2 (Homo sapiens, UniProt P34972); test: Displacement of [3H]CP-55940 from human CB2 receptor expressed in CHO cells; format: cell-based
# [4] = Terminal half life in non obese human; format: ADME, organism-based; settings: in vivo, read-out: beta t1/2 (converted)
# [5] = tested on: Rattus norvegicus; test: Inhibition of CP-55940-induced hypotension in po dosed anaesthetized rat; format: functional; settings: read-out: ID50 (the source's name)
# [6] = Lipophilicity log P of compound at pH 7.4 by RP-HPLC analysis; format: physicochemical; settings: buffer
# [7] = tested on: LLC-PK1; test: Efflux ratio of permeability in pig LLC-PK1 cells expressing human MDR1 assessed as ratio of bottom to top transport over top to bottom transport; format: ADME, cell-based, Sus scrofa
# Sequence of Cannabinoid receptor 1 (P21554 whole entry): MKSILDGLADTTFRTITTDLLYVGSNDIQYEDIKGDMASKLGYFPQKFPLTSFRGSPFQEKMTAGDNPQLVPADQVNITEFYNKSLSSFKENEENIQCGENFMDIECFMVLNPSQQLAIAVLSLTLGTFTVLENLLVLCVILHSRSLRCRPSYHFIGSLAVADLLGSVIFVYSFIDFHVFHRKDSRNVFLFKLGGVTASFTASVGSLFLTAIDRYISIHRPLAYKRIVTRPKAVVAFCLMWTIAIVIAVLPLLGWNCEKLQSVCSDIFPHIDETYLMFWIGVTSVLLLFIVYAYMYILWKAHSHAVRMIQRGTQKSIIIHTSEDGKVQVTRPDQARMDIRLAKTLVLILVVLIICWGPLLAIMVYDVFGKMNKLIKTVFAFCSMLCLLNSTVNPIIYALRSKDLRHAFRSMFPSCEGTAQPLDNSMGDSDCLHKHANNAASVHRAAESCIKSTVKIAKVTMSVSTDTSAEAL
# Sequence of Cannabinoid receptor 2 (P34972 whole entry): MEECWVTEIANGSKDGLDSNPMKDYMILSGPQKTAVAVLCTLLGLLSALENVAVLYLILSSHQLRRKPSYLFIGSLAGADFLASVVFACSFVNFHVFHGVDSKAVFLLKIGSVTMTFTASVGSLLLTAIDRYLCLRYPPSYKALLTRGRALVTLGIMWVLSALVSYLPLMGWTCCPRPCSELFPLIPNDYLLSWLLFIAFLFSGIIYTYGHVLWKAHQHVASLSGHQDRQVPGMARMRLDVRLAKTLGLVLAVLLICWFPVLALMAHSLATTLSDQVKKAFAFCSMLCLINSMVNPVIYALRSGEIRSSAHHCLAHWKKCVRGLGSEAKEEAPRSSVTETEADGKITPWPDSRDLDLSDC
SMILES,Ratio IC50 [1],pKi [2],pKi [3],further results
"C[S+]([O-])c1c(C(=O)NN2CCCCC2)nc(-c2ccc(Cl)cc2Cl)n1-c1ccc(Cl)cc1 (single isomer, unassigned; (+)) [listing 1 of 2 here]",> 77,,,
O=C(NN1CCCCC1)c1nc(-c2ccc(Cl)cc2Cl)n(-c2ccc(Cl)cc2)c1CO,221,7.47,5.12,
N#Cc1c(C(=O)NN2CCCCC2)nc(-c2ccc(Cl)cc2Cl)n1-c1ccc(Cl)cc1,53,,,
Cc1c(C(=O)NN2CCCCC2)nc(-c2ccc(Cl)cc2Cl)n1-c1ccc(Cl)cc1,20,,,
Cc1c(C(=O)NN2CCCCC2)nn(-c2ccc(Cl)cc2Cl)c1-c1ccc(Cl)cc1 [RIMONABANT],,,,half-life [4]: 6 days
CSc1c(C(=O)NN2CCCC2)nn(-c2ccc(Cl)cc2Cl)c1-c1ccc(Cl)cc1,211,8.52,6.20,ED50 [5]: 1.9 mg/kg; logP [6]: 4.7
CCSc1c(C(=O)NN2CCCCC2)nc(-c2ccc(Cl)cc2Cl)n1-c1ccc(Cl)cc1,> 19,7.29,< 6.00,
O=C(NN1CCCCC1)c1nc(-c2ccc(Cl)cc2Cl)n(-c2ccc(Cl)cc2)c1I,181,8.00,5.74,
CCc1c(C(=O)NN2CCCCC2)nc(-c2ccc(Cl)cc2Cl)n1-c1ccc(Cl)cc1,31,,,
CSc1c(C(=O)NN2CCCCCC2)nn(-c2ccc(Cl)cc2Cl)c1-c1ccc(Cl)cc1,14,7.57,6.43,
C[S+]([O-])c1c(C(=O)NN2CCCCC2)nn(-c2ccc(Cl)cc2Cl)c1-c1ccc(Cl)cc1 (stereo not drawn),20,7.70,6.40,ED50 [5]: > 30 mg/kg; Ratio [7]: 8; logP [6]: 3.7
CS(=O)(=O)c1c(C(=O)NN2CCCCC2)nc(-c2ccc(Cl)cc2Cl)n1-c1ccc(Cl)cc1,> 840,,< 5.00,ED50 [5]: 29 mg/kg; Ratio [7]: 6; logP [6]: 3.5
C[S+]([O-])c1c(C(=O)NN2CCCCC2)nc(-c2ccc(Cl)cc2Cl)n1-c1ccc(Cl)cc1 (stereo in doubt; 12) [listing 1 of 2 here],,7.31,,pKi ([3]; cho): < 6.00; ED50 [5]: > 30 mg/kg; Ratio [7]: 7.7; logP [6]: 3.7
CSc1c(C(=O)NN2CCCCC2)nn(-c2ccc(Cl)cc2Cl)c1-c1ccc(Cl)cc1,,7.89,6.09,ED50 [5]: 1.5 mg/kg
CSc1c(C(=O)NN2CCCCCC2)nc(-c2ccc(Cl)cc2Cl)n1-c1ccc(Cl)cc1,27,7.92,6.49,
"C[S+]([O-])c1c(C(=O)NN2CCCCC2)nc(-c2ccc(Cl)cc2Cl)n1-c1ccc(Cl)cc1 (single isomer, unassigned; (-)) [listing 1 of 2 here]",> 50,,,
"C[S+]([O-])c1c(C(=O)NN2CCCCC2)nc(-c2ccc(Cl)cc2Cl)n1-c1ccc(Cl)cc1 (single isomer, unassigned; (+)) [listing 2 of 2 here]",,7.89,,pKi ([3]; cho): < 6.00
CSc1c(C(=O)NN2CCCCC2)nc(-c2ccc(Cl)cc2Cl)n1-c1ccc(Cl)cc1,88,7.91,5.97,ED50 [5]: 1.9 mg/kg; Ratio [7]: 1.4; logP [6]: 4.8
"C[S+]([O-])c1c(C(=O)NN2CCCCC2)nc(-c2ccc(Cl)cc2Cl)n1-c1ccc(Cl)cc1 (single isomer, unassigned; (-)) [listing 2 of 2 here]",,7.70,< 6.00,
CSc1c(C(=O)NN2CCCC2)nc(-c2ccc(Cl)cc2Cl)n1-c1ccc(Cl)cc1,> 112,8.05,,
C[S+]([O-])c1c(C(=O)NN2CCCCC2)nc(-c2ccc(Cl)cc2Cl)n1-c1ccc(Cl)cc1 (stereo in doubt; 12) [listing 2 of 2 here],> 20,,,
